Results: patent US10934310B2, “Inhibitors of Bruton's tyrosine kinase and method of their use” (JANSSEN PHARMACEUTICA NV, priority 2015, dated 2021)

Each molecule was assayed against unphosphorylated-BTK kinase domain (UP-BTK), GST-tagged human BTK (389-659aa) (Homo sapiens (Human), UniProt Q06187) (assay: BTK Kinase Lanthascreen Binding Assay). Settings: compound, 50 nM Tracer 236, 2 nM anti-GST antibody, 60 minutes; pIC50 = negative log of the IC50 in molar.
Experimental: BTK Kinase Lanthascreen Binding Assay:
A BTK kinase lanthascreen binding assay monitors compound binding to unphosphorylated-BTK kinase domain (UP-BTK), by competing with a fluorescent labeled tracer. […] Data were analyzed using Xlfit™ version 5.3 from ID Business Solutions (Guildford), Microsoft Excel add-in. pIC50 refers to the negative log of the IC50 in molar.

Sequence of unphosphorylated-BTK kinase domain (UP-BTK), GST-tagged human BTK (389-659aa) (Q06187 389-659): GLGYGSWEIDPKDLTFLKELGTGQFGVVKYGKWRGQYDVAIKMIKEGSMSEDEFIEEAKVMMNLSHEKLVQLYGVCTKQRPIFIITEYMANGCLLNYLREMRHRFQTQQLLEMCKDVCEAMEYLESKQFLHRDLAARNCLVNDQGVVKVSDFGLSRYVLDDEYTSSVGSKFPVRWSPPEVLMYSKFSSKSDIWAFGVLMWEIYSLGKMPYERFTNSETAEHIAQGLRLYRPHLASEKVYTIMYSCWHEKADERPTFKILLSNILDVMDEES

SMILES | BTK_I_binding pIC50
C=CC(=O)N[C@@H]1CCC[C@H]1NC(=O)c1sc2nccc3c2c1NC(=O)N3c1cnc(Oc2ccccc2)cc1C (single isomer, unassigned) [Example 200, N-((1R,2R)-2-Acrylamidocyclopentyl)-5-(*S)-(4-methyl-6-phenoxypyridin-3-yl)-4-oxo-4,5-dihydro-3H-1-thia-3,5,8-triazaacenaphthylene-2-carboxamide] | 8.18
C=CC(=O)N[C@H]1CCCC[C@H]1NC(=O)c1sc2nccc3c2c1NC(=O)N3c1ccc(OC2CCC2)nc1C (single isomer, unassigned) [Example 204, N-((1R,2S)-2-Acrylamidocyclohexyl)-5-(*S)-(6-cyclobutoxy-2-methylpyridin-3-yl)-4-oxo-4,5-dihydro-3H-1-thia-3,5,8-triazaacenaphthylene-2-carboxamide] | 8.03
C=CC(=O)N[C@H]1CCCC[C@H]1NC(=O)c1sc2nccc3c2c1NC(=O)N3c1ccc(OC(C)C)nc1C (single isomer, unassigned) [Example 209, N-((1R,2S)-2-Acrylamidocyclohexyl)-5-(*S)-(6-isopropoxy-2-methylpyridin-3-yl)-4-oxo-4,5-dihydro-3H-1-thia-3,5,8-triazaacenaphthylene-2-carboxamide] | 7.31
Cc1cc(Oc2ccccc2)ncc1N1C(=O)Nc2c(C(=O)N[C@@H]3CCC[C@@H]3NC(=O)CCCl)sc3nccc1c23 (single isomer, unassigned) [Example 210, N-((1R,2S)-2-(3-Chloropropanamido)cyclopentyl)-5-(*S)-(4-methyl-6-phenoxypyridin-3-yl)-4-oxo-4,5-dihydro-3H-1-thia-3,5,8-triazaacenaphthylene-2-carboxamide] | 7.19
C=CC(=O)N[C@@H]1CCCC[C@H]1NC(=O)c1sc2nccc3c2c1NC(=O)N3c1cnc(Oc2ccccc2)cc1C (single isomer, unassigned) [Example 213, N-((1R,2R)-2-Acrylamidocyclohexyl)-5-(*S)-(4-methyl-6-phenoxypyridin-3-yl)-4-oxo-4,5-dihydro-3H-1-thia-3,5,8-triazaacenaphthylene-2-carboxamide] | 7.30
C=CC(=O)N[C@@H]1CCC[C@@H](NC(=O)c2sc3nccc4c3c2NC(=O)N4c2ccc(OC(C)C)cc2C)C1 (single isomer, unassigned) [Example 215, N-((1R,3R)-3-Acrylamidocyclohexyl)-5-(*R)-(4-isopropoxy-2-methylphenyl)-4-oxo-4,5-dihydro-3H-1-thia-3,5,8-triazaacenaphthylene-2-carboxamide] | 7.13
C=CC(=O)N[C@@H]1CCC[C@H]1NC(=O)c1sc2nccc3c2c1NC(=O)N3c1cnc(Oc2ccccc2)nc1C (single isomer, unassigned) [Example 219, N-((1R,2R)-2-Acrylamidocyclopentyl)-5-(*S)-(4-methyl-2-phenoxypyrimidin-5-yl)-4-oxo-4,5-dihydro-3H-1-thia-3,5,8-triazaacenaphthylene-2-carboxamide] | 7.94
C=CC(=O)N[C@H]1CCCC[C@H]1NC(=O)c1sc2nccc3c2c1NC(=O)N3c1cnc(OC2CCC2)cc1C (single isomer, unassigned) [Example 221, N-((1R,2S)-2-Acrylamidocyclohexyl)-5-(*S)-(6-cyclobutoxy-4-methylpyridin-3-yl)-4-oxo-4,5-dihydro-3H-1-thia-3,5,8-triazaacenaphthylene-2-carboxamide] | 8.29
C=CC(=O)N[C@H]1CC[C@H](NC(=O)c2sc3nccc4c3c2NC(=O)N4c2ccc(Oc3ccccc3)cc2C)C1 (single isomer, unassigned) [Example 226, N-((1S,3S)-3-Acrylamidocyclopentyl)-5-(*S)-(2-methyl-4-phenoxyphenyl)-4-oxo-4,5-dihydro-3H-1-thia-3,5,8-triazaacenaphthylene-2-carboxamide] | 6.85
Cc1cc(Oc2ccccc2)ccc1N1C(=O)Nc2c(C(=O)N[C@H]3CCC[C@@H](N)C3)sc3nccc1c23 (single isomer, unassigned) [Example 230, N-((1S,3R)-3-Aminocyclohexyl)-5-(*S)-(2-methyl-4-phenoxyphenyl)-4-oxo-4,5-dihydro-3H-1-thia-3,5,8-triazaacenaphthylene-2-carboxamide] | 7.24
C=CC(=O)N[C@H]1CCC[C@H](NC(=O)c2sc3nccc4c3c2NC(=O)N4c2ccc(Oc3ccccc3)cc2C)C1 (single isomer, unassigned) [Example 231, N-((1S,3S)-3-Acrylamidocyclohexyl)-5-(*S)-(2-methyl-4-phenoxyphenyl)-4-oxo-4,5-dihydro-3H-1-thia-3,5,8-triazaacenaphthylene-2-carboxamide] | 6.56
Cc1cc(Oc2ccccc2)ncc1N1C(=O)Nc2c(C(=O)N[C@@H]3CCC[C@H]3N)sc3nccc1c23 (single isomer, unassigned) [Example 233] | 6.85
C=CC(=O)N[C@H]1CCC[C@@H](NC(=O)c2sc3nccc4c3c2NC(=O)N4c2ccc(Oc3ccccc3)cc2C)C1 (single isomer, unassigned) [Example 237, N-((1R,3S)-3-Acrylamidocyclohexyl)-5-(*S)-(2-methyl-4-phenoxyphenyl)-4-oxo-4,5-dihydro-3H-1-thia-3,5,8-triazaacenaphthylene-2-carboxamide] | 6.56
C=CC(=O)N[C@H]1CCCC[C@H]1NC(=O)c1sc2nccc3c2c1NC(=O)N3c1ccc(OC(C)C)nc1C (single isomer, unassigned) [Example 238, N-((1R,2S)-2-Acrylamidocyclohexyl)-5-(*R)-(6-isopropoxy-2-methylpyridin-3-yl)-4-oxo-4,5-dihydro-3H-1-thia-3,5,8-triazaacenaphthylene-2-carboxamide] | 6.95
Cc1cc(Oc2ccccc2)ccc1N1C(=O)Nc2c(C(=O)N[C@@H]3CC[C@H](N)C3)sc3nccc1c23 (single isomer, unassigned) [Example 240, N-((1R,3S)-3-Aminocyclopentyl)-5-(*S)-(2-methyl-4-phenoxyphenyl)-4-oxo-4,5-dihydro-3H-1-thia-3,5,8-triazaacenaphthylene-2-carboxamide] | 6.72
CC(=O)N[C@H]1CC[C@H](NC(=O)c2sc3nccc4c3c2NC(=O)N4c2ccc(Oc3ccccc3)cc2C)C1 (single isomer, unassigned) [Example 241, N-((1S,3S)-3-Acetamidocyclopentyl)-5-(*S)-(2-methyl-4-phenoxyphenyl)-4-oxo-4,5-dihydro-3H-1-thia-3,5,8-triazaacenaphthylene-2-carboxamide] | 7.26
C=CC(=O)N[C@H]1CCCC[C@H]1NC(=O)c1sc2nccc3c2c1NC(=O)N3c1ccc(OC2CCC2)nc1C (single isomer, unassigned) [Example 242, N-((1R,2S)-2-Acrylamidocyclohexyl)-5-(*R)-(6-cyclobutoxy-2-methylpyridin-3-yl)-4-oxo-4,5-dihydro-3H-1-thia-3,5,8-triazaacenaphthylene-2-carboxamide] | 7.04
CC(=O)N[C@H]1CCC[C@H](NC(=O)c2sc3nccc4c3c2NC(=O)N4c2ccc(Oc3ccccc3)cc2C)C1 (single isomer, unassigned) [Example 243, N-((1S,3S)-3-Acetamidocyclohexyl)-5-(*S)-(2-methyl-4-phenoxyphenyl)-4-oxo-4,5-dihydro-3H-1-thia-3,5,8-triazaacenaphthylene-2-carboxamide] | 6.85
CC(=O)N[C@H]1CC[C@@H](NC(=O)c2sc3nccc4c3c2NC(=O)N4c2ccc(Oc3ccccc3)cc2C)C1 (single isomer, unassigned) [Example 244, N-((1R,3S)-3-Acetamidocyclopentyl)-5-(*S)-(2-methyl-4-phenoxyphenyl)-4-oxo-4,5-dihydro-3H-1-thia-3,5,8-triazaacenaphthylene-2-carboxamide] | 6.66
Cc1cc(Oc2ccccc2)ccc1N1C(=O)Nc2c(C(=O)N[C@H]3CCC[C@H](N)C3)sc3nccc1c23 (single isomer, unassigned) [Example 247, N-((1S,3S)-3-Aminocyclohexyl)-5-(*S)-(2-methyl-4-phenoxyphenyl)-4-oxo-4,5-dihydro-3H-1-thia-3,5,8-triazaacenaphthylene-2-carboxamide] | 6.66
Cc1cc(Oc2ccccc2)ccc1N1C(=O)Nc2c(C(=O)N[C@H]3CCC[C@H](NC(=O)CN)C3)sc3nccc1c23 (single isomer, unassigned) [Example 251, N-((1R,3S)-3-(2-Aminoacetamido)cyclohexyl)-5-(*S)-(2-methyl-4-phenoxyphenyl)-4-oxo-4,5-dihydro-3H-1-thia-3,5,8-triazaacenaphthylene-2-carboxamide] | 6.71
Cc1cc(Oc2ccccc2)ccc1N1C(=O)Nc2c(C(=O)N[C@H]3CCC[C@H](NC(=O)CN(C)C)C3)sc3nccc1c23 (single isomer, unassigned) [Example 252, N-((1R,3S)-3-(2-(Dimethylamino)acetamido)cyclohexyl)-5-(*S)-(2-methyl-4-phenoxyphenyl)-4-oxo-4,5-dihydro-3H-1-thia-3,5,8-triazaacenaphthylene-2-carboxamide] | 6.63
CC(=O)N[C@H]1CCC[C@H](NC(=O)c2sc3nccc4c3c2NC(=O)N4c2ccc(Oc3ccccc3)cc2C)C1 (single isomer, unassigned) [Example 253, N-((1R,3S)-3-Acetamidocyclohexyl)-5-(*S)-(2-methyl-4-phenoxyphenyl)-4-oxo-4,5-dihydro-3H-1-thia-3,5,8-triazaacenaphthylene-2-carboxamide] | 6.63
Cc1nc(Oc2ccccc2)ncc1N1C(=O)Nc2c(C(=O)N[C@@H]3CCC[C@@H]3N)sc3nccc1c23 (single isomer, unassigned) [Example 254, N-((1R,2S)-2-aminocyclopentyl)-5-(*)-(4-methyl-2-phenoxypyrimidin-5-yl)-4-oxo-4,5-dihydro-3H-1-thia-3,5,8-triazaacenaphthylene-2-carboxamide] | 6.55
